{
  "source": "patent US6461997B1",
  "about": "“Triazole sulfones having herbicidal activity” (Monsanto Technology LLC, priority 1999, dated 2002)",
  "key": {"[1]": {"system": "CHEAL (common lambsquarters)", "test": "Pre-plant incorporated (PPI) herbicidal activity, warm season", "type": "in vivo, Chenopodium album", "settings": "for Percent inhibition CHEAL: PPI application", "method": "(§1) In another set of tests, the pre-plant incorporated (PPI) activity of compounds of this invention was evaluated on the same species as for the pre-emergence tests described above. In the PPI tests the following procedure, designed to simulate PPI application, was used.\n(§2) A pre-prepared topsoil mixture (described above) was placed in a pot and compacted to a depth of 1.0 to 1.25 cm from the top of the pot. Seeds of each of several monocotyledonous and dicotyledonous annual plant species were placed on top of the soil. A sufficient quantity of soil to cover the seeds and level fill the pot was weighed into an open container. A known amount of the test compound was dissolved or suspended in an organic solvent and applied by spraying to this cover soil. The cover soil was thoroughly mixed to distribute the test compound throughout the cover soil, and was then applied as a cover layer over the seeds. Untreated soil was used as a cover layer for control pots. After treatment the plants were placed in a greenhouse where they received 0.64 cm of overhead irrigation. All subsequent watering consisted of a light overhead mist and/or subirrigation as needed for germination and growth. Tables 9 and 10 below relate to warm season plant species which were placed after pre-emergence treatment in a greenhouse with a 30/21° C. day/night temperature regime. Tables 11 and 12 below relates to cool season plant species placed after pre-emergence treatment in a greenhouse or growth chamber with an 18/13° C. day/night temperature regime. Only the compounds of Examples 1, 6, 8, 11, 13 and 15-20 were included in PPI tests.\n(§3) Approximately 14 days after planting and treating, the plants were observed and herbicidal efficacy recorded as percent inhibition by comparison with untreated plants."}, "[2]": {"system": "PANMI (wild proso millet)", "test": "Pre-plant incorporated (PPI) herbicidal activity, warm season", "type": "in vivo, Panicum miliaceum", "settings": "for Percent inhibition PANMI: PPI application", "method": "as §1, §2, §3"}, "SORVU (shattercane)": {"system": "SORVU (shattercane)", "test": "Pre-emergence herbicidal activity, warm season", "type": "in vivo, Sorghum vulgare", "settings": "GR80 = lowest tested rate (300, 100, 30, 10 g/ha) with 80% or greater inhibition; approx. 14 days after treating; 30/21° C.", "procedure,_shortened": "(§4)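 Seeds sown in sterilised fertilised topsoil received surface-applied compound in 50:50 acetone/water, typically at 300, 100, 30 and 10 g/ha, then greenhouse-grown at 30/21° C (warm-season species) or 18/13° C (cool-season species). Percent inhibition versus untreated plants was scored at about 14 days, giving GR80; an asterisk marks activity short of 80% at the top rate.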"}, "SETFA (giant foxtail)": {"system": "SETFA (giant foxtail)", "test": "Pre-plant incorporated (PPI) herbicidal activity, warm season", "type": "in vivo, Setaria faberi", "settings": "for Percent inhibition SETFA: PPI application", "method": "as §1, §2, §3"}, "DIGSA (large crabgrass)": {"system": "DIGSA (large crabgrass)", "test": "Pre-emergence herbicidal activity, warm season", "type": "in vivo, Digitaria sanguinalis", "settings": "GR80 = lowest tested rate (300, 100, 30, 10 g/ha) with 80% or greater inhibition; approx. 14 days after treating; 30/21° C.", "procedure,_shortened": "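Read-out: GR80, derived from percent growth inhibition relative to untreated plants at roughly 14 days after planting and treatment. Compounds went onto the surface of freshly seeded soil at 10–300 g/ha. Day/night regimes were 30/21 °C for millet and crabgrass, 18/13 °C for blackgrass and buckwheat.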"}, "[3]": {"system": "AGRRE (quackgrass (seedling))", "test": "Pre-plant incorporated (PPI) herbicidal activity, cool season", "type": "in vivo, Elymus repens", "settings": "for Percent inhibition AGRRE: weed, PPI application", "method": "as §1, §2, §3"}, "SINAR (wild mustard)": {"system": "SINAR (wild mustard)", "test": "Pre-plant incorporated (PPI) herbicidal activity, cool season", "type": "in vivo, Sinapis arvensis", "settings": "for Percent inhibition SINAR: weed, PPI application", "method": "as §1, §2, §3"}, "[4]": {"system": "BRAPP (broadleaf signalgrass)", "test": "Pre-plant incorporated (PPI) herbicidal activity, warm season", "type": "in vivo, Brachiaria platyphylla", "settings": "for Percent inhibition BRAPP: PPI application", "method": "as §1, §2, §3"}, "wheat (TRZAW)": {"system": "wheat (TRZAW)", "test": "Selectivity test, PPI, cool season crop", "type": "in vivo, Triticum aestivum", "settings": "PPI application", "method": "as §2, §3\nAdditional pre-emergence and PPI tests were conducted by the procedures described above, on warm and cool season weed species in the presence of crop species, to assess herbicidal selectivity. Crop species included in warm season tests were corn (Zea mays, ZEAMX), rice (Oryza sativa, ORYSA) and soybean (Glycine max, GLYMX). Crop species included in cool season tests were wheat (Triticum aestivum, TRZAW), barley (Hordeunm vulgare, HORVX) and oilseed rape (Brassica napus, BRSNS).\nTables 15 and 16 relate to pre-emergence and PPI tests respectively on warm season species. Table 17 relates to pre-emergence tests on cool season species."}, "AMARE (redroot pigweed)": {"system": "AMARE (redroot pigweed)", "test": "Pre-emergence herbicidal activity, warm season", "type": "in vivo, Amaranthus retroflexus", "settings": "GR80 = lowest tested rate (300, 100, 30, 10 g/ha) with 80% or greater inhibition; approx. 14 days after treating; 30/21° C.", "procedure,_shortened": "as §4"}, "[5]": {"settings": "pre-plant incorporated, lowest tested rate with 80% or greater inhibition, about 14 days"}},
  "data": [
    {"smiles": "CCN(CC)C(=O)n1cnc(S(=O)(=O)C(F)(F)C(=O)c2ccccc2)n1", "note": "[Example 6]", "values": [
      {"measurement": "PPI activity (GR80) CHEAL", "setting": "[1]; pre-plant incorporated, GR80 = lowest tested rate with 80% or greater inhibition, approx. 14 days after treating, 30/21° C.", "result": 100, "unit": "g/ha"},
      {"measurement": "PPI activity GR80, PANMI", "setting": "[2]; [5]", "result": 100, "unit": "g/ha"},
      {"measurement": "Pre-emergence activity (GR80) SORVU", "setting": "SORVU (shattercane)", "result": "* (activity observed, at least at highest rate, but <80% inhibition)"},
      {"measurement": "PPI activity GR80, SETFA", "setting": "SETFA (giant foxtail); [5]", "result": 100, "unit": "g/ha"},
      {"measurement": "Pre-emergence activity (GR80) DIGSA", "setting": "DIGSA (large crabgrass)", "result": 300, "unit": "g/ha"},
      {"measurement": "PPI activity GR80, AGRRE", "setting": "[3]; [5]", "result": 300, "unit": "g/ha"},
      {"measurement": "PPI activity GR80, SINAR", "setting": "SINAR (wild mustard); [5]", "result": 300, "unit": "g/ha"},
      {"measurement": "PPI activity GR80, BRAPP", "setting": "[4]; [5]", "result": 300, "unit": "g/ha"}
    ]},
    {"smiles": "CCN(CC)C(=O)n1cnc(S(=O)(=O)C(F)(F)SCc2ccccc2)n1", "note": "[Example 10]", "values": [
      {"measurement": "Percent inhibition CHEAL", "setting": "[1]; 10 g/ha", "result": 30, "unit": "%"},
      {"measurement": "Percent inhibition CHEAL", "setting": "[1]; 30 g/ha", "result": 60, "unit": "%"},
      {"measurement": "Percent inhibition CHEAL", "setting": "[1]; 100 g/ha", "result": 60, "unit": "%"},
      {"measurement": "Percent inhibition CHEAL", "setting": "[1]; 300 g/ha", "result": 100, "unit": "%"},
      {"measurement": "Percent inhibition CHEAL", "setting": "[1]; 900 g/ha", "result": 100, "unit": "%"},
      {"measurement": "Percent inhibition PANMI", "setting": "[2]; 10 g/ha", "result": 0, "unit": "%"},
      {"measurement": "Percent inhibition PANMI", "setting": "[2]; 30 g/ha", "result": 0, "unit": "%"},
      {"measurement": "Percent inhibition PANMI", "setting": "[2]; 100 g/ha", "result": 80, "unit": "%"},
      {"measurement": "Percent inhibition PANMI", "setting": "[2]; 300 g/ha", "result": 99, "unit": "%"},
      {"measurement": "Percent inhibition PANMI", "setting": "[2]; 900 g/ha", "result": 100, "unit": "%"},
      {"measurement": "Percent inhibition SETFA", "setting": "SETFA (giant foxtail); 10 g/ha", "result": 0, "unit": "%"},
      {"measurement": "Percent inhibition SETFA", "setting": "SETFA (giant foxtail); 30 g/ha", "result": 60, "unit": "%"},
      {"measurement": "Percent inhibition SETFA", "setting": "SETFA (giant foxtail); 100 g/ha", "result": 80, "unit": "%"},
      {"measurement": "Percent inhibition SETFA", "setting": "SETFA (giant foxtail); 300 g/ha", "result": 100, "unit": "%"},
      {"measurement": "Percent inhibition SETFA", "setting": "SETFA (giant foxtail); 900 g/ha", "result": 100, "unit": "%"},
      {"measurement": "Pre-emergence activity (GR80) DIGSA", "setting": "DIGSA (large crabgrass)", "result": 100, "unit": "g/ha"},
      {"measurement": "Percent inhibition TRZAW", "setting": "wheat (TRZAW); 10 g/ha", "result": 0, "unit": "%"},
      {"measurement": "Percent inhibition TRZAW", "setting": "wheat (TRZAW); 30 g/ha", "result": 0, "unit": "%"},
      {"measurement": "Percent inhibition TRZAW", "setting": "wheat (TRZAW); 100 g/ha", "result": 0, "unit": "%"},
      {"measurement": "Percent inhibition TRZAW", "setting": "wheat (TRZAW); 300 g/ha", "result": 10, "unit": "%"},
      {"measurement": "Percent inhibition TRZAW", "setting": "wheat (TRZAW); 900 g/ha", "result": 20, "unit": "%"},
      {"measurement": "Percent inhibition AGRRE", "setting": "[3]; 10 g/ha", "result": 0, "unit": "%"},
      {"measurement": "Percent inhibition AGRRE", "setting": "[3]; 30 g/ha", "result": 0, "unit": "%"},
      {"measurement": "Percent inhibition AGRRE", "setting": "[3]; 100 g/ha", "result": 0, "unit": "%"},
      {"measurement": "Percent inhibition AGRRE", "setting": "[3]; 300 g/ha", "result": 0, "unit": "%"},
      {"measurement": "Percent inhibition AGRRE", "setting": "[3]; 900 g/ha", "result": 50, "unit": "%"},
      {"measurement": "Pre-emergence activity (GR80) AMARE", "setting": "AMARE (redroot pigweed)", "result": 100, "unit": "g/ha"},
      {"measurement": "Percent inhibition SINAR", "setting": "SINAR (wild mustard); 10 g/ha", "result": 0, "unit": "%"},
      {"measurement": "Percent inhibition SINAR", "setting": "SINAR (wild mustard); 30 g/ha", "result": 90, "unit": "%"},
      {"measurement": "Percent inhibition SINAR", "setting": "SINAR (wild mustard); 100 g/ha", "result": 100, "unit": "%"},
      {"measurement": "Percent inhibition SINAR", "setting": "SINAR (wild mustard); 300 g/ha", "result": 80, "unit": "%"},
      {"measurement": "Percent inhibition SINAR", "setting": "SINAR (wild mustard); 900 g/ha", "result": 100, "unit": "%"},
      {"measurement": "Percent inhibition BRAPP", "setting": "[4]; 10 g/ha", "result": 0, "unit": "%"},
      {"measurement": "Percent inhibition BRAPP", "setting": "[4]; 30 g/ha", "result": 20, "unit": "%"},
      {"measurement": "Percent inhibition BRAPP", "setting": "[4]; 100 g/ha", "result": 70, "unit": "%"},
      {"measurement": "Percent inhibition BRAPP", "setting": "[4]; 300 g/ha", "result": 100, "unit": "%"},
      {"measurement": "Percent inhibition BRAPP", "setting": "[4]; 900 g/ha", "result": 100, "unit": "%"}
    ]}
  ]
}
